The conditions of data set [1]: Crystal; DSC.
Data set [2] in a line: Molar enthalpy of transition or fusion. The following applies: Crystal; DSC.

Structures are written as SMILES. Numbers after ± are expanded uncertainties.

Turning to `NNC(=O)c1ccncc1` [isonicotinic acid hydrazide], the Triple point temperature in data set [1] came to 446.04 ± 0.87 K. The “Molar enthalpy of transition or fusion” value in data set [2] was 6.72 ± 0.359 kcal/mol.

The values are drawn from the NIST ThermoML archive (doi:10.1021/acs.jced.8b00785).
